# Data as given in patent US9802064B2, “Microcapsule comprising glycoprotein derived from plants” (AMOREPACIFIC CORPORATION, priority 2012, dated 2017).
# Test: DPPH assay of anti-oxidative (radical scavenging) activity
# Assay type: biochemical
# Settings: 100 μM DPPH, 37° C., 30 minutes, absorbance 517 nm; FIG. 7
# Protocol: To evaluate anti-oxidative activity, DPPH (1,1-diphenyl-2-picrylhydrazyl) assay was carried out. The samples used in this test (Doore Co., Ltd.) are as follows.
# DPPH assay is a test in which an oxidant called DPPH is used to initiate oxidation and the ability of a sample to be tested in removing radicals is determined. When DPPH meets a material having anti-oxidative activity, it […] electrons to cause radical removing and undergoes a change in color from purple to yellow. Thus, it is possible to observe the oxidative activity of a material easily with the naked eye.
# Each sample was introduced to a 96-well plate in an amount of 10 μl, and 100 μM of DPPH was introduced thereto in an amount of 190 μl. After carrying out reaction at 37° C. for 30 minutes, the absorbance was measured at 517 nm. Vitamin C was used as positive control (10, 5, 2.5 μg/ml).
substance,measurement,value
sodium caseinate [ISAI-022],anti-oxidative activity (DPPH radical scavenging),no radical scavenging activity
